# Test results taken from ChEMBL document CHEMBL4364313, “Synthesis of new 5,6,7,8-tetrahydropyrido[1,2-c]pyrimidine derivatives with rigidized tryptamine moiety as potential SSRI and 5-HT1A receptor ligands” (Eur J Med Chem, 2019).
# Calls of active or inactive are those of the source. The calls are words filed in the database; no cut-off is given here.
# How the values were obtained:
# [1] = target: Serotonin transporter (SERT); experiment: biochemical
# Mus musculus [2] = experiment: Induction of hypothermia in CD-1 mouse assessed as change in body temperature at 20 mg/kg, ip treated for 90 mins and measured after 30 mins by thermometric method; assay type: functional, organism-based
# D(2) dopamine receptor = D(2) dopamine receptor (Homo sapiens, UniProt P14416); experiment: biochemical
# Description: Displacement of [3H]-raclopride from human D2 receptor expressed in HEK cells incubated for 1 hr by Cheng-Prusoff analysis based microbeta scintillation counting method
# [3] = Half life in human liver microsomes at 1 uM measured for 5 to 60 mins under shaking condition in presence of NADPH by LCMS analysis; assay type: ADME, Microsome
# Mus musculus [4] = experiment: Induction of hypothermia in CD-1 mouse assessed as change in body temperature at 5 mg/kg, ip treated for 30 mins and measured after 30 mins by thermometric method; assay type: functional, organism-based
# [5] = target: 5-hydroxytryptamine receptor 2A (Homo sapiens, UniProt P28223); experiment: Displacement of [3H]ketanserin from human 5HT2A receptor expressed in HEK293 cells incubated for 1.5 hrs by Cheng-Prusoff analysis based microbeta scintillation counting method; assay type: cell-based
# Mus musculus [6] = experiment: Induction of hypothermia in CD-1 mouse assessed as change in body temperature at 20 mg/kg, ip treated for 30 mins and measured after 30 mins by thermometric method; assay type: functional, organism-based
# [7] = target: 5-hydroxytryptamine receptor 7 (Homo sapiens, UniProt P34969); experiment: biochemical
# Description: Displacement of [3H]-5-CT from human 5HT7 receptor expressed in HEK cells incubated for 1 hr by Cheng-Prusoff analysis based microbeta scintillation counting method
# Mus musculus [8] = experiment: Induction of hypothermia in CD-1 mouse assessed as change in body temperature at 20 mg/kg, ip treated for 60 mins and measured after 30 mins by thermometric method; assay type: functional, organism-based
# Mus musculus [9] = experiment: Induction of hypothermia in CD-1 mouse assessed as change in body temperature at 5 mg/kg, ip treated for 120 mins and measured after 30 mins by thermometric method; assay type: functional, organism-based
# Mus musculus [10] = experiment: Induction of hypothermia in CD-1 mouse assessed as change in body temperature at 5 mg/kg, ip treated for 90 mins and measured after 30 mins by thermometric method; assay type: functional, organism-based
# Mus musculus [11] = experiment: Induction of hypothermia in CD-1 mouse assessed as change in body temperature at 20 mg/kg, ip treated for 120 mins and measured after 30 mins by thermometric method; assay type: functional, organism-based
# Mus musculus [12] = experiment: Induction of hypothermia in CD-1 mouse assessed as change in body temperature at 5 mg/kg, ip treated for 60 mins and measured after 30 mins by thermometric method; assay type: functional, organism-based
# [13] = target: 5-hydroxytryptamine receptor 6 (Homo sapiens, UniProt P50406); experiment: biochemical
# Description: Displacement of [3H]LSD from human 5-HT6 receptor expressed in HEK cells incubated for 1 hr by Cheng-Prusoff analysis based microbeta scintillation counting method
# Mus musculus [14] = experiment: Inhibition of 8-OH-DPAT-induced hypothermia in CD-1 mouse assessed change in body temperature at 20 mg/kg, ip pretreated for 45 mins followed by 8-OH-DPAT addition and measured after 60 mins by thermometric method; assay type: functional, organism-based
# Mus musculus [15] = experiment: Inhibition of 8-OH-DPAT-induced hypothermia in CD-1 mouse assessed change in body temperature at 20 mg/kg, ip pretreated for 45 mins followed by 8-OH-DPAT addition and measured after 45 mins by thermometric method; assay type: functional, organism-based
# Mus musculus [16] = experiment: Inhibition of 8-OH-DPAT-induced hypothermia in CD-1 mouse assessed change in body temperature at 20 mg/kg, ip pretreated for 45 mins followed by 8-OH-DPAT addition and measured after 15 mins by thermometric method; assay type: functional, organism-based
# Mus musculus [17] = experiment: Inhibition of 8-OH-DPAT-induced hypothermia in CD-1 mouse assessed change in body temperature at 20 mg/kg, ip pretreated for 45 mins followed by 8-OH-DPAT addition and measured after 30 mins by thermometric method; assay type: functional, organism-based
# Mus musculus [18] = species: Mus musculus; experiment: Effect on forepaw treading in CD-1 mouse; assay type: ADME, organism-based; conditions: in vivo
# Mus musculus [19] = species: Mus musculus; experiment: Effect on forepaw treading in CD-1 mouse up to 30 mins in presence of 8-OH-DPAT; assay type: functional, organism-based
# Mus musculus [20] = species: Mus musculus; experiment: Effect on forepaw treading in CD-1 mouse in presence of 8-OH-DPAT; assay type: functional, organism-based
# Mus musculus [21] = experiment: Psychoactive effect in CD-1 mouse assessed as effect on immobility time at 5 to 20 mg/kg, ip pretreated for 30 mins and measured after 6 mins by force swim test; assay type: ADME, organism-based; conditions: in vivo, 0.1 h
# Sequence of 5-hydroxytryptamine receptor 7 (P34969 whole entry): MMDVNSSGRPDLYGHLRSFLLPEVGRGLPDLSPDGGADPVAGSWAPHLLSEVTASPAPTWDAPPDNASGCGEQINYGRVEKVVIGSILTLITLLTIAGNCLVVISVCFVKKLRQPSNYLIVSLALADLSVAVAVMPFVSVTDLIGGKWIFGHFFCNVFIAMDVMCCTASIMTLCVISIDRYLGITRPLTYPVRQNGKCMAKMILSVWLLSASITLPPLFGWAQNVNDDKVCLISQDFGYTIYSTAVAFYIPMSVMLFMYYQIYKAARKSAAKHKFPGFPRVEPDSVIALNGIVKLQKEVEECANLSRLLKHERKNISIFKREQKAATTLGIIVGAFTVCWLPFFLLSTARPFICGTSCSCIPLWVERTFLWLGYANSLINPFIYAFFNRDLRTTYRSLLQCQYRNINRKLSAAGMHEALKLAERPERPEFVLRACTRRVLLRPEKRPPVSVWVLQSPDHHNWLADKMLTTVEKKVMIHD
# Sequence of D(2) dopamine receptor (P14416 whole entry): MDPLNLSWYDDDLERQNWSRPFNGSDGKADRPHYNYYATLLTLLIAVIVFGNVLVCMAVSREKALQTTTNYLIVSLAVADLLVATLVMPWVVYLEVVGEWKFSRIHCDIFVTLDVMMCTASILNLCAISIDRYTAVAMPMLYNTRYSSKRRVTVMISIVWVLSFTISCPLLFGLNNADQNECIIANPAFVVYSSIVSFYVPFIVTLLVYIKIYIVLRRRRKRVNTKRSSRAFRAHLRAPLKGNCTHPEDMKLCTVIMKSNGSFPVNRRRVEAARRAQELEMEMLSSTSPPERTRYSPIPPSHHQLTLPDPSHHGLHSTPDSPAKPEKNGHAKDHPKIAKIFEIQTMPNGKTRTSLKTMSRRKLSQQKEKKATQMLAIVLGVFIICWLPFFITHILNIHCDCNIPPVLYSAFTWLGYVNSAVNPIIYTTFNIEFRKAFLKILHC
# Sequence of 5-hydroxytryptamine receptor 6 (P50406 whole entry): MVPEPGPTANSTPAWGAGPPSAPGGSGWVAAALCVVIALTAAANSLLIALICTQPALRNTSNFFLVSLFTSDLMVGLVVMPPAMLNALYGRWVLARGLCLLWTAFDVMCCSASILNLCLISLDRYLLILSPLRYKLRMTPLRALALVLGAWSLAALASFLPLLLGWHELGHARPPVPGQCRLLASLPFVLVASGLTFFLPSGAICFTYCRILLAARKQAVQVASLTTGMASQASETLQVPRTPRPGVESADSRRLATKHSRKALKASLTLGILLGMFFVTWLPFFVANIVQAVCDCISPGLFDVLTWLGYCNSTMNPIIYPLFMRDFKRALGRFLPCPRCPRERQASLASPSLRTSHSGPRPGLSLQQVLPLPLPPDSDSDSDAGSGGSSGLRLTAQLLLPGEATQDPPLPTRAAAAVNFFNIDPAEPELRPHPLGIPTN
# Sequence of 5-hydroxytryptamine receptor 2A (P28223 whole entry): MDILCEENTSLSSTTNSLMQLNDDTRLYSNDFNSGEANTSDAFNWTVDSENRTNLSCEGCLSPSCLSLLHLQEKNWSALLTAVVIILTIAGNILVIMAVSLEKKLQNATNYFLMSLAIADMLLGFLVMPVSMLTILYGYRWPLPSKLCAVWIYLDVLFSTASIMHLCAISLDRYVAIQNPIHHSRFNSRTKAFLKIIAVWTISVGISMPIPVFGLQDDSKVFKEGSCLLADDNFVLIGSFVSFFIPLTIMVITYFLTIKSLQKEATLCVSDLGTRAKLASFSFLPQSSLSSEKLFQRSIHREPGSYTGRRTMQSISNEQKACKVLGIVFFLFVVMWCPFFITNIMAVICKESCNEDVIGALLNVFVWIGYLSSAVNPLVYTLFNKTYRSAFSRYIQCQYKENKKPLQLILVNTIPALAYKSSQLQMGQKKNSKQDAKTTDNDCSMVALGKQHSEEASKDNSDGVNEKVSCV
smiles,measurement,setting,value
Cc1ccccc1-c1c2n(c(=O)n(CCCCN3CCCC(c4c[nH]c5ccc(F)cc45)C3)c1=O)CCCC2 (centres undefined),Ki,[1],0.142 µM
COc1ccc2[nH]cc(C3CCCN(CCCCn4c(=O)c(-c5ccc(C)cc5)c5n(c4=O)CCCC5)C3)c2c1 (centres undefined),Ki,[1],0.321 µM
COc1ccc2[nH]cc(C3CCCN(CCCCn4c(=O)c(-c5ccccc5)c5n(c4=O)CCCC5)C3)c2c1 (centres undefined),Ki,[1],0.102 µM
COc1ccc2[nH]cc(C3CCCN(CCCCn4c(=O)c(-c5ccccc5F)c5n(c4=O)CCCC5)C3)c2c1 (centres undefined),Ki,[1],0.236 µM
COc1ccc2[nH]cc(C3CCCN(CCCCn4c(=O)c(-c5ccccc5C)c5n(c4=O)CCCC5)C3)c2c1 (centres undefined),Ki,[1],0.066 µM
O=c1c(-c2ccccc2F)c2n(c(=O)n1CCCCN1CCCC(c3c[nH]c4ccc(F)cc34)C1)CCCC2 (centres undefined),Ki,[1],0.028 µM
O=c1c(-c2ccccc2)c2n(c(=O)n1CCCCN1CCCC(c3c[nH]c4ccc(F)cc34)C1)CCCC2 (centres undefined),Ki,[1],0.105 µM
Cc1ccc(-c2c3n(c(=O)n(CCCCN4CCCC(c5c[nH]c6ccccc56)C4)c2=O)CCCC3)cc1 (centres undefined),Ki,[1],0.05 µM
O=c1c(-c2ccccc2Cl)c2n(c(=O)n1CCCCN1CCCC(c3c[nH]c4ccccc34)C1)CCCC2 (centres undefined),deltaT,Mus musculus [2],0.3 °C
same,Ki,D(2) dopamine receptor,0.896 µM
same,half-life at 1 µM,[3],7 min
same,deltaT,Mus musculus [4],0 °C
same,Ki,[5],0.609 µM
same,deltaT,Mus musculus [6],-0.8 °C
same,Ki,[7],1.36 µM
same,deltaT,Mus musculus [8],0.2 °C
same,deltaT,Mus musculus [9],0.8 °C
same,deltaT,Mus musculus [10],0.9 °C
same,deltaT,Mus musculus [11],0.2 °C
same,deltaT,Mus musculus [12],0.3 °C
same,Ki,[13],1.03 µM
same,Ki,[1],0.008 µM
Cc1ccccc1-c1c2n(c(=O)n(CCCCN3CCCC(c4c[nH]c5ccccc45)C3)c1=O)CCCC2 (centres undefined),Ki,[1],0.062 µM
O=c1c(-c2ccccc2F)c2n(c(=O)n1CCCCN1CCCC(c3c[nH]c4ccccc34)C1)CCCC2 (centres undefined),deltaT,Mus musculus [2],0.6 °C
same,Ki,D(2) dopamine receptor,> 10 µM
same,half-life at 1 µM,[3],12 min
same,deltaT,Mus musculus [4],0.2 °C
same,Ki,[5],0.325 µM
same,deltaT,Mus musculus [14],-1.8 °C
same,deltaT,Mus musculus [6],-0.8 °C
same,Ki,[7],2.43 µM
same,deltaT,Mus musculus [8],0 °C
same,deltaT,Mus musculus [15],-1.9 °C
same,deltaT,Mus musculus [9],1 °C
same,deltaT,Mus musculus [16],-1.6 °C
same,deltaT,Mus musculus [10],0.7 °C
same,deltaT,Mus musculus [17],-1.8 °C
same,deltaT,Mus musculus [11],0.7 °C
same,deltaT,Mus musculus [12],0.3 °C
same,Ki,[13],1.03 µM
same,Ki,[1],0.015 µM
O=c1c(-c2ccc(Cl)cc2)c2n(c(=O)n1CCCCN1CCCC(c3c[nH]c4ccccc34)C1)CCCC2 (centres undefined),deltaT,Mus musculus [2],0.5 °C
same,Ki,D(2) dopamine receptor,1.65 µM
same,deltaT,Mus musculus [4],0.1 °C
same,Ki,[5],1.49 µM
same,deltaT,Mus musculus [14],-1.2 °C
same,deltaT,Mus musculus [6],0.3 °C
same,Ki,[7],1.38 µM
same,deltaT,Mus musculus [8],0.7 °C
same,deltaT,Mus musculus [15],-1.2 °C
same,deltaT,Mus musculus [9],0.2 °C
same,deltaT,Mus musculus [16],-1.1 °C
same,deltaT,Mus musculus [10],-0.1 °C
same,deltaT,Mus musculus [17],-1.1 °C
same,deltaT,Mus musculus [11],0.3 °C
same,deltaT,Mus musculus [12],0.3 °C
same,Ki,[13],1.32 µM
same,Ki,[1],0.03 µM
Cc1ccc(-c2c3n(c(=O)n(CCCCN4CCCC(c5c[nH]c6ccc(F)cc56)C4)c2=O)CCCC3)cc1 (centres undefined),Ki,[1],0.233 µM
O=c1c(-c2ccccc2Cl)c2n(c(=O)n1CCCCN1CCCC(c3c[nH]c4ccc(F)cc34)C1)CCCC2 (centres undefined),Ki,[1],0.047 µM
COc1ccc2[nH]cc(C3CCCN(CCCCn4c(=O)c(-c5ccccc5Cl)c5n(c4=O)CCCC5)C3)c2c1 (centres undefined),Ki,[1],0.05 µM
COc1ccc2[nH]cc(C3CCCN(CCCCn4c(=O)c(-c5ccc(F)cc5)c5n(c4=O)CCCC5)C3)c2c1 (centres undefined),Ki,[1],0.076 µM
O=c1c(-c2ccccc2)c2n(c(=O)n1CCCCN1CCCC(c3c[nH]c4ccccc34)C1)CCCC2 (centres undefined),deltaT,Mus musculus [2],-0.2 °C
same,Ki,D(2) dopamine receptor,2.35 µM
same,half-life at 1 µM,[3],11.1 min
same,deltaT,Mus musculus [4],0.2 °C
same,Ki,[5],0.725 µM
same,deltaT,Mus musculus [14],0.7 °C
same,deltaT,Mus musculus [6],-0.6 °C
same,Ki,[7],1.09 µM
same,deltaT,Mus musculus [8],0 °C
same,deltaT,Mus musculus [15],-0.9 °C
same,deltaT,Mus musculus [9],0.8 °C
same,deltaT,Mus musculus [16],-1.2 °C
same,deltaT,Mus musculus [10],0.3 °C
same,deltaT,Mus musculus [17],-1.1 °C
same,deltaT,Mus musculus [11],-0.1 °C
same,deltaT,Mus musculus [12],0.3 °C
same,Ki,[13],1.15 µM
same,Ki,[1],0.027 µM
COc1ccc2[nH]cc(C3CCCN(CCCCn4c(=O)c(-c5ccccc5OC)c5n(c4=O)CCCC5)C3)c2c1 (centres undefined),Ki,[1],0.239 µM
O=c1c(-c2ccc(F)cc2)c2n(c(=O)n1CCCCN1CCCC(c3c[nH]c4ccc(F)cc34)C1)CCCC2 (centres undefined),deltaT,Mus musculus [2],0.1 °C
same,Activity,Mus musculus [18],Non-Toxic
same,Ki,D(2) dopamine receptor,1.05 µM
same,half-life at 1 µM,[3],6.2 min
same,deltaT,Mus musculus [4],0.8 °C
same,Ki,[5],0.484 µM
same,deltaT,Mus musculus [14],-0.4 °C
same,deltaT,Mus musculus [6],-0.6 °C
same,Ki,[7],1.11 µM
same,deltaT,Mus musculus [8],0.1 °C
same,deltaT,Mus musculus [15],-0.3 °C
same,deltaT,Mus musculus [9],0.9 °C
same,deltaT,Mus musculus [16],-0.1 °C
same,deltaT,Mus musculus [10],0.6 °C
same,deltaT,Mus musculus [17],0.2 °C
same,deltaT,Mus musculus [11],0 °C
same,deltaT,Mus musculus [12],0.8 °C
same,Ki,[13],0.728 µM
same,Ki,[1],0.031 µM
same,Activity,Mus musculus [19],Active
COc1ccccc1-c1c2n(c(=O)n(CCCCN3CCCC(c4c[nH]c5ccc(F)cc45)C3)c1=O)CCCC2 (centres undefined),Ki,[1],0.04 µM
COc1ccc(-c2c3n(c(=O)n(CCCCN4CCCC(c5c[nH]c6ccc(F)cc56)C4)c2=O)CCCC3)cc1 (centres undefined),Ki,[1],0.042 µM
O=C1CC2(CCCC2)CC(=O)N1CCCCN1CCN(c2ncccn2)CC1 [BUSPIRONE],half-life at 1 µM,[3],6.6 min
O=c1c(-c2ccc(Cl)cc2)c2n(c(=O)n1CCCCN1CCCC(c3c[nH]c4ccc(F)cc34)C1)CCCC2 (centres undefined),Ki,[1],0.259 µM
O=c1c(-c2ccc(F)cc2)c2n(c(=O)n1CCCCN1CCCC(c3c[nH]c4ccccc34)C1)CCCC2 (centres undefined),deltaT,Mus musculus [2],-0.1 °C
same,Ki,D(2) dopamine receptor,1.98 µM
same,Activity,Mus musculus [20],Active
same,half-life at 1 µM,[3],7 min
same,deltaT,Mus musculus [4],0.3 °C
same,Ki,[5],1.28 µM
same,deltaT,Mus musculus [14],-0.9 °C
same,deltaT,Mus musculus [6],0.1 °C
same,Activity,Mus musculus [21],Non-Toxic
same,Ki,[7],1.71 µM
same,deltaT,Mus musculus [8],0.3 °C
same,deltaT,Mus musculus [15],-0.3 °C
same,deltaT,Mus musculus [9],0.5 °C
same,deltaT,Mus musculus [16],-0.2 °C
same,deltaT,Mus musculus [10],0.3 °C
same,deltaT,Mus musculus [17],-0.2 °C
same,deltaT,Mus musculus [11],0.1 °C
same,deltaT,Mus musculus [12],0.3 °C
same,Ki,[13],1.65 µM
same,Ki,[1],0.013 µM
COc1ccc(-c2c3n(c(=O)n(CCCCN4CCCC(c5c[nH]c6ccc(OC)cc56)C4)c2=O)CCCC3)cc1 (centres undefined),Ki,D(2) dopamine receptor,1.8 µM
same,half-life at 1 µM,[3],7 min
same,Ki,[5],1.19 µM
same,Ki,[7],0.546 µM
same,Ki,[13],0.452 µM
same,Ki,[1],0.052 µM
COc1ccc(-c2c3n(c(=O)n(CCCCN4CCCC(c5c[nH]c6ccccc56)C4)c2=O)CCCC3)cc1 (centres undefined),Ki,[1],0.052 µM
COc1ccccc1-c1c2n(c(=O)n(CCCCN3CCCC(c4c[nH]c5ccccc45)C3)c1=O)CCCC2 (centres undefined),Ki,[1],0.025 µM
COc1ccc2[nH]cc(C3CCCN(CCCCn4c(=O)c(-c5ccc(Cl)cc5)c5n(c4=O)CCCC5)C3)c2c1 (centres undefined),Ki,[1],0.023 µM
